pIC50: −log10 of the molar value. “And” between values parts separate entries of the source, which are not always exact repeats. Identical values can stand only once. Counter-ions that a name gives are not always drawn. Like-named read-outs stand apart in the source and are kept apart here.
How the values were obtained:
[1] = target: T1, MMP-13CD (catalytic domain of collagenase 3) (Homo sapiens, UniProt P45452); test: biochemical;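 note: inhibition of enzymatic thiopeptolide substrate cleavage (100 µM) in pH 6.0 MES buffer with CaCl2 and DTNB, comparing hydrolysis with versus without inhibitor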
[2] = target: T2, MMP-1FL (full-length interstitial collagenase) (Homo sapiens, UniProt P03956); test: Thiopeptolide hydrolysis assay, MMP-1; type: biochemical; conditions: read-out: MMP01 IC50
T2 sequence (P03956 100-469): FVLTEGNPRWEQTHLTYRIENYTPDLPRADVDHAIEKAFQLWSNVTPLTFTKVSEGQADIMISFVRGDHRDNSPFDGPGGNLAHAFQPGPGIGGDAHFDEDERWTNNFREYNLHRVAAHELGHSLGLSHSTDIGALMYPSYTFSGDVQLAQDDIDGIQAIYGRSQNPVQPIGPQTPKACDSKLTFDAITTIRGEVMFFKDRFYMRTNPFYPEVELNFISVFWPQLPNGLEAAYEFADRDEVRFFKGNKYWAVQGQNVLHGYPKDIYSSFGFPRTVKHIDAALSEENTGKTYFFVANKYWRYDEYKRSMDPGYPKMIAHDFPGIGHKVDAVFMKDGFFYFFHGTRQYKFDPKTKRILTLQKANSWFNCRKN

[3] = target: MMP-3CD (catalytic domain of stromelysin) (Homo sapiens, UniProt P08254); test: Thiopeptolide hydrolysis assay, MMP-3; type: biochemical; conditions: read-out: MMP03 IC50;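 note: inhibition of thiopeptolide substrate (100 µM) cleavage by the MMP-3 catalytic domain, detected with DTNB at pH 6.0 with CaCl2, hydrolysis compared against runs lacking inhibitor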
[4] = target: T1, MMP-13CD (catalytic domain of collagenase 3); test: Thiopeptolide hydrolysis assay, MMP-13;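 note: inhibition of enzymatic thiopeptolide substrate cleavage (100 µM) in pH 6.0 MES buffer with CaCl2 and DTNB, comparing hydrolysis with versus without inhibitor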

Chain of MMP-3CD (catalytic domain of stromelysin) (P08254 100-272 limits assumed): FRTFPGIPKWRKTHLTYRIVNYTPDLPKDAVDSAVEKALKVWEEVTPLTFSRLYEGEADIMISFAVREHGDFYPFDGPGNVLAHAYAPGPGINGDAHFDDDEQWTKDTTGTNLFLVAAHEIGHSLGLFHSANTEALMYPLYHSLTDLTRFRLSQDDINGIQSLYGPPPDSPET

SMILES	pIC50 [1]	pIC50 ([2]; Table II)	pIC50 ([3]; Table II)	IC50 ([4]; MMP13 IC50 (nM), Table II)	pIC50 ([2]; Table 1b)	pIC50 ([3]; Table 1b)	IC50 ([4]; MMP13 IC50 (μM), Table 1b)
Cn1c(=O)c2cc(C(=O)NCc3ccc4c(c3)OCO4)ccc2n(C)c1=O [1,3-Dimethyl-2,4-dioxo-1,2,3,4-tetrahydroquinazoline-6-carboxylic acid (benzo[1,3]dioxol-5-ylmethyl)amide]	5.77	–	–	–	–	–	–
Cn1c(=O)n(CCc2ccccc2)c(=O)c2cc(C(=O)NCc3ccc4c(c3)OCO4)ccc21 [1-Methyl-2,4-dioxo-3-phenethyl-1,2,3,4-tetrahydroquinazoline-6-carboxylic acid (benzo[1,3]dioxol-5-ylmethyl)amide]	6.15	–	–	–	–	–	–
O=C(NCc1ccc2c(c1)OCO2)c1ccc2[nH]c(=O)n(Cc3ccncc3)c(=O)c2c1 [2,4-Dioxo-3-pyrid-4-ylmethyl-1,2,3,4-tetrahydroquinazoline-6-carboxylic acid (benzo[1,3]dioxol-5-ylmethyl)amide]	7.29	–	–	–	–	–	–
O=C(NCc1ccc2c(c1)OCO2)c1ccc2c(c1)c(=O)n(Cc1ccccc1)c(=O)n2CC1CC1 [3-Benzyl-1-cyclopropylmethyl-2,4-dioxo-1,2,3,4-tetrahydroquin-azoline-6-carboxylic acid (benzo[1,3]dioxol-5-ylmethyl)amide]	6.80	–	–	–	–	–	–
CC(C)Cn1c(=O)n(Cc2ccccc2)c(=O)c2cc(C(=O)NCc3ccc4c(c3)OCO4)ccc21 [3-Benzyl-1-isobutyl-2,4-dioxo-1,2,3,4-tetrahydroquinazoline-6-carboxylic acid (benzo[1,3]dioxol-5-ylmethyl)amide]	6.22	–	–	–	–	–	–
COc1ccc(CNC(=O)c2cn3c(=O)n(Cc4ccc(Cl)c(Cl)c4)c(=O)cc3s2)cc1 [6-(3,4-Dichloro-benzyl)-5,7-dioxo-6,7-dihydro-5H-thiazolo[3,2-c]pyrimidine-2-carboxylic acid 4-methoxy-benzylamide]	–	–	–	–	< 4.00	< 4.00	84 nM
COc1ccc(C(=O)NCc2ccc3c(c2)OCO3)cc1C(=O)NCc1ccc2c(c1)OCO2 [N,N′-Bis-1,3-benzodioxol-5-ylmethyl-4-methoxy-isophthalamide]	–	< 4.00	4.30	185 nM	–	–	–
Cc1c(=O)n(Cc2ccc(C(=O)OCCN(C)C)cc2)c(=O)n2cc(C(=O)NCc3ccncc3)sc12 [dihydrochloride]	–	–	–	–	< 4.00	< 4.00	235 nM
COc1ccc(CNC(=O)c2cn3c(=O)n(Cc4ccc(C(=O)OCCN(C)C)cc4)c(=O)c(C)c3s2)cc1 [hydrochloride]	–	–	–	–	< 4.52	< 4.00	45.5 nM
Cc1c(=O)n(Cc2ccc(Br)cc2)c(=O)n2cc(C(=O)NCc3ccncc3)sc12 [hydrochloride]	–	–	–	–	< 4.52	< 4.52	36.5 nM
Cc1c(=O)n(Cc2ccc(C#N)cc2)c(=O)n2cc(C(=O)NCc3ccncc3)sc12 [hydrochloride]	–	–	–	–	< 4.52	< 4.52	54.7 nM
Cc1c(=O)n(Cc2ccc(C(=O)N3CCOCC3)cc2)c(=O)n2cc(C(=O)NCc3ccncc3)sc12 [hydrochloride]	–	–	–	–	< 4.00	< 4.00	37 nM
Cc1c(=O)n(Cc2ccc(C(=O)OCCN(C)C)cc2)c(=O)n2cc(C(=O)NCc3ccc(F)cc3)sc12 [hydrochloride]	–	–	–	–	< 4.52	< 4.00	71 nM
Cc1c(=O)n(Cc2ccc(F)cc2)c(=O)n2cc(C(=O)NCc3ccncc3)sc12 [hydrochloride]	–	–	–	–	< 4.52	< 4.52	60.5 nM
Cc1c(=O)n(Cc2ccc(S(N)(=O)=O)cc2)c(=O)n2cc(C(=O)NCc3ccncc3)sc12 [hydrochloride]	–	–	–	–	< 4.52	< 4.00	46.3 nM
Cc1c(=O)n(Cc2cccc(C#N)c2)c(=O)n2cc(C(=O)NCc3ccncc3)sc12 [hydrochloride]	–	–	–	–	< 4.52	< 4.52	173 nM
Cc1c(=O)n(Cc2ccccc2)c(=O)n2cc(C(=O)NCc3ccncc3)sc12 [hydrochloride]	–	–	–	–	< 4.52	< 4.52	48.7 nM
Cc1c(=O)n(Cc2nccs2)c(=O)n2cc(C(=O)NCc3ccc(F)cc3)sc12 [hydrochloride]	–	–	–	–	< 4.00	< 4.52	530 nM
O=C(NCc1ccccc1)c1cn2c(=O)n(Cc3ccncc3)c(=O)cc2s1 [hydrochloride]	–	–	–	–	< 4.00	< 4.00	1800 nM
O=C(NCc1ccncc1)c1cn2c(=O)n(Cc3ccccc3)c(=O)cc2s1 [hydrochloride]	–	–	–	–	< 4.00	4.17	490 nM
COc1ccc(CNC(=O)c2cn3c(=O)n(Cc4ccc(C(=O)O)cc4)c(=O)c(C)c3s2)cc1 [sodium salt]	–	–	–	–	< 4.00	4.44	1.75 nM

Now from value to compound, other results behind:

pIC50 [1]	pIC50 ([2]; Table II)	pIC50 ([3]; Table II)	IC50 ([4]; MMP13 IC50 (nM), Table II)	SMILES	pIC50 ([2]; Table 1b)	pIC50 ([3]; Table 1b)	IC50 ([4]; MMP13 IC50 (μM), Table 1b)
7.02	–	–	–	Cn1c(=O)n(Cc2cccs2)c(=O)c2cc(C(=O)NCc3ccccc3)ccc21 [1-Methyl-2,4-dioxo-3-thien-2-ylmethyl-1,2,3,4-tetrahydroquinazoline-6-carboxylic acid benzylamide]	–	–	–
6.52	–	–	–	O=C(NCc1ccccc1)c1ccc2[nH]c(=O)n(Cc3cccs3)c(=O)c2c1 [2,4-Dioxo-3-thien-2-ylmethyl-1,2,3,4-tetrahydroquinazoline-6-carboxylic acid benzylamide]	–	–	–
7.29	–	–	–	Cn1c(=O)n(Cc2ccccc2)c(=O)c2cc(C(=O)NCc3ccncc3)ccc21 [3-Benzyl-1-methyl-2,4-dioxo-1,2,3,4-tetrahydroquinazoline-6-carboxylic acid (4-pyridylmethyl)amide]	–	–	–
7.24	–	–	–	Cn1c(=O)n(Cc2ccccc2)c(=O)c2cc(C(=O)NCc3ccccc3)ccc21 [3-Benzyl-1-methyl-2,4-dioxo-1,2,3,4-tetrahydroquinazoline-6-carboxylic acid benzylamide]	–	–	–
6.78	–	–	–	O=C(NCc1ccc(Cl)cc1)c1ccc2[nH]c(=O)n(Cc3ccccc3)c(=O)c2c1 [3-Benzyl-2,4-dioxo-1,2,3,4-tetrahydroquinazoline-6-carboxylic acid 4-chlorobenzylamide]	–	–	–
–	< 4.00	4.14	1100 nM	Nc1cc(C(=O)OCc2ccccc2)cc(C(=O)OCc2ccccc2)c1 [5-Amino-isophthalic acid dibenzyl ester]	–	–	–
–	< 4.00	< 4.52	7830 nM	O=C(OCc1cccc(F)c1)c1cccc(C(=O)OCc2cccc(F)c2)c1 [Isophthalic acid bis-(3-fluoro-benzyl) ester]	–	–	–
–	< 4.00	< 4.00	1150 nM	COc1cccc(COC(=O)c2cccc(C(=O)OCc3cccc(OC)c3)c2)c1 [Isophthalic acid bis-(3-methoxy-benzyl) ester]	–	–	–
–	< 4.00	< 4.00	2330 nM	O=C(OCc1ccc(F)cc1)c1cccc(C(=O)OCc2ccc(F)cc2)c1 [Isophthalic acid bis-(4-fluoro-benzyl) ester]	–	–	–
–	< 4.00	4.29	1080 nM	COc1ccc(COC(=O)c2cccc(C(=O)OCc3ccc(OC)cc3)c2)cc1 [Isophthalic acid bis-(4-methoxy-benzyl) ester]	–	–	–
–	< 4.00	< 4.52	2300 nM	O=C(OCc1ccccc1)c1cccc(C(=O)OCc2ccccc2)c1 [Isophthalic acid dibenzyl ester]	–	–	–
–	< 4.00	4.70	2300 nM	O=C(NCc1cccc(Cl)c1)c1cccc(C(=O)NCc2cccc(Cl)c2)c1 [N,N′-Bis-(3-chloro-benzyl)-isophthalamide]	–	–	–
–	< 4.00	< 4.00	5650 nM	O=C(NCc1cccc(F)c1)c1cccc(C(=O)NCc2cccc(F)c2)c1 [N,N′-Bis-(3-fluoro-benzyl)-isophthalamide]	–	–	–
–	< 4.00	< 4.00	1350 nM	COc1cccc(CNC(=O)c2cccc(C(=O)NCc3cccc(OC)c3)c2)c1 [N,N′-Bis-(3-methoxy-benzyl)-isophthalamide]	–	–	–
–	4.10	5.03	5500 nM	O=C(NCc1ccc(Cl)cc1)c1cccc(C(=O)NCc2ccc(Cl)cc2)c1 [N,N′-Bis-(4-chloro-benzyl)-isophthalamide]	–	–	–
–	< 4.00	< 4.00	930 nM	COc1cc(CNC(=O)c2cccc(C(=O)NCc3ccc(F)c(OC)c3)c2)ccc1F [N,N′-Bis-(4-fluoro-3-methoxy-benzyl)-isophthalamide]	–	–	–
–	< 4.00	< 4.00	2350 nM	O=C(NCc1ccc(F)cc1)c1cccc(C(=O)NCc2ccc(F)cc2)c1 [N,N′-Bis-(4-fluoro-benzyl)-isophthalamide]	–	–	–
–	< 4.00	< 4.00	1000 nM and 2740 nM	COc1ccc(CNC(=O)c2cccc(C(=O)NCc3ccc(OC)cc3)c2)cc1 [N,N′-Bis-(4-methoxy-benzyl)-isophthalamide]	–	–	–
–	< 4.00	< 4.00	1800 nM and 1100 nM	COc1ccc(C(=O)NCc2ccccc2)cc1C(=O)NCc1ccccc1 [N,N′-Dibenzyl-4-methoxy-isophthalamide]	–	–	–
–	< 4.00	< 4.00	2420 nM	COc1ccc(CNC(=O)c2cccc(C(=O)NCc3ccccc3)c2)cc1 [N-Benzyl-N′-(4-methoxy-benzyl)-isophthalamide]	–	–	–
